Experimental data as given in patent US9708314B2, “Heterocyclic amide compound” (NISSAN CHEMICAL INDUSTRIES, LTD., priority 2013, dated 2017).

Columns and labels:
Assay type in all cases: in vivo
Triticum aestivum = experiment: Test Example 4: effect on crop by application to foliage (diluvial soil, plastic box); conditions: for e (Triticum aestivum) effect on crop: application to foliage, application herbicide amount 320 g/ha
Summary of the method: (§1)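 Scores run from 0 (herbicidal ratio ≤5%) to 5 (≥90%, almost fully withered) and were assessed three weeks after foliar spraying. Seedlings had been raised for 14 days at 25-30° C in sterilized diluvial soil before treatment, with the emulsion diluted in water to the stated g/ha dose.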

Zea mays = experiment: as above; conditions: for b (Zea mays) effect on crop: application to foliage, application herbicide amount 320 g/ha
Summary of the method: as §1

Brassica campestris L. = experiment: as above; conditions: for g (Brassica campestris L.) effect on crop: application to foliage, application herbicide amount 320 g/ha
Summary of the method: as §1

Glycine max = experiment: as above; conditions: for c (Glycine max) effect on crop: application to foliage, application herbicide amount 320 g/ha
Summary of the method: as §1

[1] = test system: directly sowed Oryza sativa; experiment: as above; conditions: for d (directly sowed Oryza sativa) effect on crop: application to foliage, application herbicide amount 320 g/ha
Summary of the method: as §1

[2] = test system: Beta vulgaris ssp. vulgaris; experiment: as above; conditions: for f (Beta vulgaris ssp. vulgaris) effect on crop: application to foliage, application herbicide amount 320 g/ha
Summary of the method: as §1

[3] = test system: transplanted Oryza sativa; experiment: Test Example 1: effect on crop, application before weed generation in submerged conditions; conditions: Application herbicide amount 320 g/ha; Seventeenth Table
Summary of the method: (§2)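 Alluvial soil in Wagner pots flooded to 4 cm water depth; weed seeds sown and 2.5 leaf stage rice seedlings transplanted. Emulsion diluted in water applied to water surface on sowing day at stated g/ha. Greenhouse 25° C. to 30° C.; effects scored 0–5 by herbicidal ratio after three weeks.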

Scirpus juncoides = experiment: Test Example 1: herbicidal activity, application before weed generation in submerged conditions; conditions: Application herbicide amount 320 g/ha; Seventeenth Table
Summary of the method: as §2

[4] = test system: Echinochloa oryzacola Vasing.; experiment: as above; conditions: Application herbicide amount 320 g/ha; Seventeenth Table
Summary of the method: as §2

Monochoria vaginalis = experiment: as above; conditions: Application herbicide amount 320 g/ha; Seventeenth Table
Summary of the method: as §2

Lolium multiflorum Lam. = experiment: Test Example 4: herbicidal effect by application to foliage (diluvial soil, plastic box); conditions: for K (Lolium multiflorum Lam.) herbicidal effect: application to foliage, application herbicide amount 320 g/ha
Summary of the method: as §1

Avena fatua = experiment: as above; conditions: for I (Avena fatua) herbicidal effect: application to foliage, application herbicide amount 320 g/ha
Summary of the method: as §1

Alopecurus myosuroides = experiment: as above; conditions: for J (Alopecurus myosuroides) herbicidal effect: application to foliage, application herbicide amount 320 g/ha
Summary of the method: as §1

Digitaria ciliaris = experiment: as above; conditions: for F (Digitaria ciliaris) herbicidal effect: application to foliage, application herbicide amount 320 g/ha
Summary of the method: as §1

Setaria viridis = experiment: as above; conditions: for G (Setaria viridis) herbicidal effect: application to foliage, application herbicide amount 320 g/ha
Summary of the method: as §1

Abutilon theophrasti = experiment: as above; conditions: for M (Abutilon theophrasti) herbicidal effect: application to foliage, application herbicide amount 320 g/ha
Summary of the method: as §1

Galium spurium = experiment: as above; conditions: for Q (Galium spurium) herbicidal effect: application to foliage, application herbicide amount 320 g/ha
Summary of the method: as §1

Apera spica-venti. = experiment: as above; conditions: for L (Apera spica-venti.) herbicidal effect: application to foliage, application herbicide amount 320 g/ha
Summary of the method: as §1

[5] = test system: Echinochloa crus-galli var. crus-galli; experiment: as above; conditions: for H (Echinochloa crus-galli var. crus-galli) herbicidal effect: application to foliage, application herbicide amount 320 g/ha
Summary of the method: as §1

Veronica persica = experiment: as above; conditions: for R (Veronica persica) herbicidal effect: application to foliage, application herbicide amount 320 g/ha
Summary of the method: as §1

Chenopodium album = experiment: as above; conditions: for O (Chenopodium album) herbicidal effect: application to foliage, application herbicide amount 320 g/ha
Summary of the method: as §1

[6] = Application herbicide amount 320 g/ha, effect on crop
[7] = Application herbicide amount 320 g/ha

Cc1nnc(NC(=O)c2ccc(C(F)(F)F)n3c(C4=NOC(C)(C)C4)nnc23)o1 [1-029]
e (Triticum aestivum) effect on crop (Triticum aestivum): 1 (Herbicidal ratio of 5% or more and less than 20%)
b (Zea mays) effect on crop (Zea mays): 3 (Herbicidal ratio of 40% or more and less than 70%)
g (Brassica campestris L.) effect on crop (Brassica campestris L.): 1 (Herbicidal ratio of 5% or more and less than 20%)
c (Glycine max) effect on crop (Glycine max): 1 (Herbicidal ratio of 5% or more and less than 20%)
d (directly sowed Oryza sativa) effect on crop [1]: 3 (Herbicidal ratio of 40% or more and less than 70%)
f (Beta vulgaris ssp. vulgaris) effect on crop [2]: 5 (Herbicidal ratio of 90% or more (almost completely withered))
a: transplanted Oryza sativa (effect on crop grade) [3]: 2 (Herbicidal ratio of 20% or more and less than 40%)
B: Scirpus juncoides (herbicidal effect grade) (Scirpus juncoides): 3 (Herbicidal ratio of 40% or more and less than 70%)
A: Echinochloa oryzicola Vasing. (herbicidal effect grade) [4]: 5 (Herbicidal ratio of 90% or more (almost completely withered))
C: Monochoria vaginalis (herbicidal effect grade) (Monochoria vaginalis): 4 (Herbicidal ratio of 70% or more and less than 90%)
K (Lolium multiflorum Lam.) herbicidal effect (Lolium multiflorum Lam.): 1 (Herbicidal ratio of 5% or more and less than 20%)
I (Avena fatua) herbicidal effect (Avena fatua): 1 (Herbicidal ratio of 5% or more and less than 20%)
J (Alopecurus myosuroides) herbicidal effect (Alopecurus myosuroides): 1 (Herbicidal ratio of 5% or more and less than 20%)
F (Digitaria ciliaris) herbicidal effect (Digitaria ciliaris): 5 (Herbicidal ratio of 90% or more (almost completely withered))
G (Setaria viridis) herbicidal effect (Setaria viridis): 4 (Herbicidal ratio of 70% or more and less than 90%)
M (Abutilon theophrasti) herbicidal effect (Abutilon theophrasti): 5 (Herbicidal ratio of 90% or more (almost completely withered))
Q (Galium spurium) herbicidal effect (Galium spurium): 0 (Herbicidal ratio of 5% or less (almost no effect))
L (Apera spica-venti.) herbicidal effect (Apera spica-venti.): 1 (Herbicidal ratio of 5% or more and less than 20%)
H (Echinochloa crus-galli var. crus-galli) herbicidal effect [5]: 5 (Herbicidal ratio of 90% or more (almost completely withered))
R (Veronica persica) herbicidal effect (Veronica persica): 5 (Herbicidal ratio of 90% or more (almost completely withered))
O (Chenopodium album) herbicidal effect (Chenopodium album): 5 (Herbicidal ratio of 90% or more (almost completely withered))

Cc1nnc(NC(=O)c2ccc(C(F)(F)F)n3c(S(C)(=O)=O)nnc23)o1 [1-040]
e (Triticum aestivum) effect on crop (Triticum aestivum): 3 (Herbicidal ratio of 40% or more and less than 70%)
b (Zea mays) effect on crop (Zea mays): 0 (Herbicidal ratio of 5% or less (almost no effect))
g (Brassica campestris L.) effect on crop (Brassica campestris L.): 1 (Herbicidal ratio of 5% or more and less than 20%)
c (Glycine max) effect on crop (Glycine max): 0 (Herbicidal ratio of 5% or less (almost no effect))
d (directly sowed Oryza sativa) effect on crop [1]: 1 (Herbicidal ratio of 5% or more and less than 20%)
f (Beta vulgaris ssp. vulgaris) effect on crop [2]: 5 (Herbicidal ratio of 90% or more (almost completely withered))
a: transplanted Oryza sativa (effect on crop grade) [3]: 1 (Herbicidal ratio of 5% or more and less than 20%)
B: Scirpus juncoides (herbicidal effect grade) (Scirpus juncoides): 3 (Herbicidal ratio of 40% or more and less than 70%)
A: Echinochloa oryzicola Vasing. (herbicidal effect grade) [4]: 3 (Herbicidal ratio of 40% or more and less than 70%)
C: Monochoria vaginalis (herbicidal effect grade) (Monochoria vaginalis): 3 (Herbicidal ratio of 40% or more and less than 70%)
K (Lolium multiflorum Lam.) herbicidal effect (Lolium multiflorum Lam.): 3 (Herbicidal ratio of 40% or more and less than 70%)
I (Avena fatua) herbicidal effect (Avena fatua): 3 (Herbicidal ratio of 40% or more and less than 70%)
J (Alopecurus myosuroides) herbicidal effect (Alopecurus myosuroides): 3 (Herbicidal ratio of 40% or more and less than 70%)
F (Digitaria ciliaris) herbicidal effect (Digitaria ciliaris): 5 (Herbicidal ratio of 90% or more (almost completely withered))
G (Setaria viridis) herbicidal effect (Setaria viridis): 4 (Herbicidal ratio of 70% or more and less than 90%)
M (Abutilon theophrasti) herbicidal effect (Abutilon theophrasti): 5 (Herbicidal ratio of 90% or more (almost completely withered))
Q (Galium spurium) herbicidal effect (Galium spurium): 3 (Herbicidal ratio of 40% or more and less than 70%)
L (Apera spica-venti.) herbicidal effect (Apera spica-venti.): 4 (Herbicidal ratio of 70% or more and less than 90%)
H (Echinochloa crus-galli var. crus-galli) herbicidal effect [5]: 4 (Herbicidal ratio of 70% or more and less than 90%)
R (Veronica persica) herbicidal effect (Veronica persica): 5 (Herbicidal ratio of 90% or more (almost completely withered))
O (Chenopodium album) herbicidal effect (Chenopodium album): 5 (Herbicidal ratio of 90% or more (almost completely withered))

CC(C)c1nnc2c(C(=O)Nc3nnc(C(F)(F)F)o3)ccc(C(F)(F)F)n12 [1-100]
e (Triticum aestivum; [6]): 0 (Herbicidal ratio of 5% or less (almost no effect))
b (Zea mays; [6]): 0 (Herbicidal ratio of 5% or less (almost no effect))
g (Brassica campestris L.; [6]): 0 (Herbicidal ratio of 5% or less (almost no effect))
c (Glycine max; [6]): 0 (Herbicidal ratio of 5% or less (almost no effect))
d [1, 6]: 1 (Herbicidal ratio of 5% or more and less than 20%)
f [2, 6]: 3 (Herbicidal ratio of 40% or more and less than 70%)
a: transplanted Oryza sativa (effect on crop grade) [3]: 0 (Herbicidal ratio of 5% or less (almost no effect))
B: Scirpus juncoides (herbicidal effect grade) (Scirpus juncoides): 3 (Herbicidal ratio of 40% or more and less than 70%)
A: Echinochloa oryzicola Vasing. (herbicidal effect grade) [4]: 4 (Herbicidal ratio of 70% or more and less than 90%)
C: Monochoria vaginalis (herbicidal effect grade) (Monochoria vaginalis): 3 (Herbicidal ratio of 40% or more and less than 70%)
K (Lolium multiflorum Lam.; [7]): 0 (Herbicidal ratio of 5% or less (almost no effect))
I (Avena fatua; [7]): 1 (Herbicidal ratio of 5% or more and less than 20%)
J (Alopecurus myosuroides; [7]): 0 (Herbicidal ratio of 5% or less (almost no effect))
F (Digitaria ciliaris; [7]): 3 (Herbicidal ratio of 40% or more and less than 70%)
G (Setaria viridis; [7]): 1 (Herbicidal ratio of 5% or more and less than 20%)
M (Abutilon theophrasti; [7]): 3 (Herbicidal ratio of 40% or more and less than 70%)
Q (Galium spurium; [7]): 0 (Herbicidal ratio of 5% or less (almost no effect))
L (Apera spica-venti.; [7]): 0 (Herbicidal ratio of 5% or less (almost no effect))
H [5, 7]: 4 (Herbicidal ratio of 70% or more and less than 90%)
R (Veronica persica; [7]): 1 (Herbicidal ratio of 5% or more and less than 20%)
O (Chenopodium album; [7]): 5 (Herbicidal ratio of 90% or more (almost completely withered))

CCC(CC)c1nnc2c(C(=O)Nc3nnc(C)o3)ccc(C(F)(F)F)n12 [1-011]
e (Triticum aestivum) effect on crop (Triticum aestivum): 0 (Herbicidal ratio of 5% or less (almost no effect))
b (Zea mays) effect on crop (Zea mays): 0 (Herbicidal ratio of 5% or less (almost no effect))
g (Brassica campestris L.) effect on crop (Brassica campestris L.): 3 (Herbicidal ratio of 40% or more and less than 70%)
c (Glycine max) effect on crop (Glycine max): 3 (Herbicidal ratio of 40% or more and less than 70%)
d (directly sowed Oryza sativa) effect on crop [1]: 4 (Herbicidal ratio of 70% or more and less than 90%)
f (Beta vulgaris ssp. vulgaris) effect on crop [2]: 5 (Herbicidal ratio of 90% or more (almost completely withered))
a: transplanted Oryza sativa (effect on crop grade) [3]: 1 (Herbicidal ratio of 5% or more and less than 20%)
B: Scirpus juncoides (herbicidal effect grade) (Scirpus juncoides): 4 (Herbicidal ratio of 70% or more and less than 90%)
A: Echinochloa oryzicola Vasing. (herbicidal effect grade) [4]: 5 (Herbicidal ratio of 90% or more (almost completely withered))
C: Monochoria vaginalis (herbicidal effect grade) (Monochoria vaginalis): 5 (Herbicidal ratio of 90% or more (almost completely withered))
K (Lolium multiflorum Lam.) herbicidal effect (Lolium multiflorum Lam.): 1 (Herbicidal ratio of 5% or more and less than 20%)
I (Avena fatua) herbicidal effect (Avena fatua): 1 (Herbicidal ratio of 5% or more and less than 20%)
J (Alopecurus myosuroides) herbicidal effect (Alopecurus myosuroides): 1 (Herbicidal ratio of 5% or more and less than 20%)
F (Digitaria ciliaris) herbicidal effect (Digitaria ciliaris): 5 (Herbicidal ratio of 90% or more (almost completely withered))
G (Setaria viridis) herbicidal effect (Setaria viridis): 4 (Herbicidal ratio of 70% or more and less than 90%)
M (Abutilon theophrasti) herbicidal effect (Abutilon theophrasti): 5 (Herbicidal ratio of 90% or more (almost completely withered))
Q (Galium spurium) herbicidal effect (Galium spurium): 2 (Herbicidal ratio of 20% or more and less than 40%)
L (Apera spica-venti.) herbicidal effect (Apera spica-venti.): 2 (Herbicidal ratio of 20% or more and less than 40%)
H (Echinochloa crus-galli var. crus-galli) herbicidal effect [5]: 5 (Herbicidal ratio of 90% or more (almost completely withered))
R (Veronica persica) herbicidal effect (Veronica persica): 5 (Herbicidal ratio of 90% or more (almost completely withered))
O (Chenopodium album) herbicidal effect (Chenopodium album): 5 (Herbicidal ratio of 90% or more (almost completely withered))
